Data set [1] addresses T1, PD1/PD-L1 (Homo sapiens, UniProt Q9NZQ7). The data set is described as follows: PD-1/PD-L1 homogeneous time-resolved fluorescence (HTRF) binding experiment. Further details: purchased BPS Biosciences. Conditions: HTRF (TR-FRET), PD-L1-biotin, PD1-Eu. The source says:
Experimental Example 1: PD-1/PD-L1 Homogenouse Time-Resolved Fluorescence (HTRF) Binding Experiment
When the PD-1 molecule as the donor is very close to the PD-L1 molecule as the acceptor, the donor molecule will transfer the energy to the receptor molecule, which in turn causes the receptor molecule to emit fluorescence. The ability of small molecules to prevent the binding of PD-L1 to PD-1 can be tested by detecting the intensity of fluorescence. A homogeneous time-resolved fluorescence (HTRF) binding experiment is used to detect the ability of the compounds of the present disclosure to inhibit the binding of PD-1/PD-L1.
PD1/PD-L1 TR-FRET detection kit was purchased from BPS Biosciences. Nivo multi-label analyzer (PerkinElmer).
PD1-Eu, Dye-labeled acceptor, PD-L1-biotin and compounds to be tested were diluted with the buffer in the kit. The compounds to be tested were subjected to 5-fold dilution to eight concentration gradients with a row gun. That is, from 40 μM to 0.5 nM, the DMSO concentration was 4%, and a double-well experiment was set up. 5 μL of inhibitor with each concentration gradient were added to the microwell plate, and 5 μL buffer containing 4% DMSO and 5 μL PD-L1-biotin (PD-L1-biotin) (60 nM) were added into well with the maximum signal (Max) and the well with the minimum signal (Min), only 5 μL of buffer was added to the well with the minimum signal (Min), and the incubation was conducted at 25° C. for 20 minutes. After the incubation was completed, 5 μL of diluted PD1-Eu (10 nM) and […] were added to each well. The reaction system was placed at 25° C. for 90 minutes. The TR-FRET signal was read by a multi-label analyzer after the reaction was completed.
Using the equation (sample−Min)/(Max−Min)×100% to convert the raw data into inhibition rate, and the IC50 value can be obtained by curve fitting with four parameters (obtained from log(inhibitor) vs. response—Variable slope mode in GraphPad Prism). Table 1 provides the inhibitory activity of the compounds of the examples of the present disclosure on PD1/PD-L1 binding
For orientation: In TR-FRET formats the signal depends on donor and acceptor labels being close together.
Target sequence in this assay (Q9NZQ7 19-239 limits assumed): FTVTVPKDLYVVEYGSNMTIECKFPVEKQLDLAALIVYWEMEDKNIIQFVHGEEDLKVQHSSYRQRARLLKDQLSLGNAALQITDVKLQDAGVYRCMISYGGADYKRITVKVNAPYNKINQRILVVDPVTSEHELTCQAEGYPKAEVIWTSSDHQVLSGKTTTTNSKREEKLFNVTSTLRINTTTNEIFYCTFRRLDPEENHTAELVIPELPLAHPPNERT

In data set [2] the target is T1, PD1/PD-L1. Description: NFAT activity test (TCR Activitor/PD-L1 CHO cells with PD-1/NFAT Reporter-Jurkat cells). The note with it: TCR Activitor/PD-L1 CHO cells + PD-1/NFAT Reporter-Jurkat cells, 5 hours, luciferase; for IC50: read-out: IC50, inhibitory activity on PD1/PD-L1 binding (NFAT activity test). The class given is cell-based. The arrangement: host or cells: TCR Activitor/PD-L1 CHO cells; PD-1/NFAT Reporter-Jurkat cells. The source says: Experimental Example 3: NFAT Activity Test
The engineered T cell expresses PD-1 molecules and T cell receptor (TCR) on the surface, which can activate the NFAT signaling pathway of T cells after co-culturing with engineered antigen presenting cells (APCs). Expression of PD-L1 molecules on APCs can effectively attenuate the NFAT signaling pathway in T cells. PD-L1 inhibitors can be used effectively block the PD-1/PD-L1 regulatory mechanism, thereby reversing the weakened NFAT signaling pathway. After being pretreated with APC, the small molecule is co-cultured with T cells, then the expression of luciferase was detected to indirectly reflect the activation of the NFAT pathway in T cells.
The PD1/PD-L1 NFAT detection kit was purchased from BPS Biosciences. Birght-Glo reagent was purchased from Promega. Nivo multi-label analyzer (PerkinElmer).
The TCR Activitor/PD-L1 CHO cells with a growth confluence of 80% were plated into the plate at 35,000 cells per well and placed in a 37° C. cell culture incubator overnight; the compounds to be tested were diluted 5-fold to the 8th concentration, from 20 μM to 0.25 nM, and the DMSO concentration was 2%, a double-well experiment was set up. The TCR Activitor/PD-L1 CHO cell supernatant was discarded, 50 μl of compound working solution was added to each well, incubated at 37° C. for 30 minutes; after the incubation was completed, 50 μL of PD-1/NFAT Reporter-Jurkat cell suspension with a concentration of 4*10^5 cells/mL was added to each well, incubated at 37° C. for 5 hours. After the incubation was completed, 100 μL Bright-Glo was added to each well, and after mixing, the chemiluminescence signal was detected by a Nivo multi-label analyzer.
Using the equation (sample−Min)/(Max−Min)×100% to convert the raw data into inhibition rate, and the IC50 value can be obtained by curve fitting with four parameters (obtained from log(inhibitor) vs. response—Variable slope mode in GraphPad Prism). Table 3 provides the inhibitory activity of the compounds of the examples of the present disclosure on PD1/PD-L1 binding.
Target sequence in this assay (Q9NZQ7 19-290): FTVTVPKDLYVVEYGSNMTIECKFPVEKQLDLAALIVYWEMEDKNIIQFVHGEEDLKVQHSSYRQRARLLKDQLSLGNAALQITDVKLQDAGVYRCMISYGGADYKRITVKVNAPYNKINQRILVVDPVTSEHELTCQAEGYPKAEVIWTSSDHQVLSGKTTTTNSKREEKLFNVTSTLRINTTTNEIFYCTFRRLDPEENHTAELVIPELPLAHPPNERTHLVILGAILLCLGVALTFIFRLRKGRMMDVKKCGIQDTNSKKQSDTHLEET

Data set [3] deals with T2, PD-L1 in MDA-MR-231 cells (Homo sapiens, UniProt Q9NZQ7).
T2 construct: endogenous in cells; host or cells: MDA-MB-231
T2 sequence (Q9NZQ7 19-290): as above
Description: Effect on expression level of PD-L1 in MDA-MR-231 cells (FACS). Conditions: 24 hours incubation, FACS detection of cell surface PD-L1. The class given is cell-based. As for the experimental part:
Experimental Example 2: Using MDA-MR-231 Cells to Detect the Effect of Compounds on the Expression Level of PD-L1
The use of a triple-negative breast cancer cell line (MDA-MB-231) is an indirect method to assess PD-L1 endocytosis. PD-L1 molecules on the cell surface can be degraded by lysosomal and proteasome pathways, and small molecule inhibitors are added to induce PD-L1 endocytosis. After co-incubating small molecules with MDA-MB-231 cells for 24 hours, flow cytometry (Fluorescence-activated Cell Sorting, FACS) is used to detect the content of PD-L1 on the cell surface, which can indirectly reflect the effect of small molecule-induced PD-L1 endocytosis. Flow cytometry (FACS) is used to detect the effect of the compounds of the present disclosure on the expression level of PD-L1 in MDA-MR-231 cells.
Phosphate buffer (DPBS), 1640 medium, penicillin-streptomycin, fetal bovine serum, non-essential amino acids, 2-hydroxy-1-ethanethiol (2-ME), human interferon γ, LIVE/DEAD staining solution, staining buffer, fixation buffer, 0.25% trypsin, EDTA, anti-human PD-L1, anti-human PD-L1 isotype.
1640 complete medium preparation: 50 mL of fetal bovine serum, 5 mL of non-essential amino acids, 5 mL of penicillin-streptomycin and 0.5 mL of 2-hydroxy-1-ethanethiol were added to 439.5 mL of 1640 medium, and evenly mixed.
10 mM EDTA preparation: 1 mL of 0.5M EDTA was added to 49 mL of DPBS, and evenly mixed.
1) MDA-MB-231 cell counting and plating: The culture flask was taken out, the medium was removed and the culture flask was rinsed once with DPBS. After the culture flask was rinsed, 3 mL of 0.25% trypsin was added to the culture flask and the culture flask was placed in a 37° C. incubator for 1.5 min. The culture flask was taken out, 9 mL of 1640 complete medium was added to stop the reaction, the cells was transferred to a 50 mL centrifuge tube, and centrifuged at 1000 rpm for 5 min at 37° C. An appropriate volume of medium was added to re-suspend the cells according to the number of cells, and the number of cells was counted with a cell counter. The cell concentration was adjusted to 5×10^5 cells/mL with medium. Planking: A volume of 200 μL of cell suspension was added to each well of a 96-well plate, ensure that the number of cells in each well was 1×10^5. The cells were incubated overnight in an incubator. 2) Drug incubation: 100-fold dilution of compounds were prepared, and the drug was subjected to a 5-fold gradient dilution. 2 μL of each 100-fold dilution of compounds were added to each well. The cells were incubated in an incubator at 37° C. for 24 hours. 3) PD-L1 cell staining and FACS detection: the culture plate was taken out and the supernatant medium was discarded. The cells were washed once with 200 μL 1×PBS. 100 μL of EDTA (final concentration of 10 mM) was added to the cell suspension, and the cell suspension was treated at 37° C. for 10 min. Then after the cell suspension was centrifuged at 1500 rpm for 5 min, the cell suspension was washed once with 200 μL of staining solution. Staining: anti-human PD-L1 (2 μL per well) and LIVE/DEAD staining solution (1:1000) were diluted in staining solution, 50 μL of the staining solution was added to each well, and the staining was conducted at 4° C. for 30 min. Then the solution was washed twice with 200 μL of staining solution. Fixation: 100 μL of fixing solution was added to each well, the fixation was conducted at 4° C. for 15 min. The solution was then washed twice with 200 μL of staining solution, and 150 μL of solution was added to re-suspend the cells, followed by FACS detection.
Table 2 provides the effects of the compounds of the examples of the present disclosure on the expression level of PD-L1 in MDA-MR-231 cells.

A short description of data set [4]: Pharmacokinetic test in C57BL/6 mice. It counts as in vivo. Conditions: mouse, plasma, male C57BL/6 mice; for bioavailability: PO 10 mg/kg vs IV 1 mg/kg, read-out: Bioavailability F; for Cmax / clearance / half-life / Vd: IV 1 mg/kg; for Cmax: PO 10 mg/kg (route not given for Cmax), read-out: Peak concentration Cmax; for clearance: read-out: Clearance CL; for half-life: read-out: Half-life T1/2 (IV) (converted); for Vd: read-out: Tissue distribution Vdss; for AUC(0-t): PO 10 mg/kg, read-out: Area under the drug-time curve AUC0-last PO. As for the experimental part:
Experimental Example 4: Pharmacokinetic Test
Experimental purpose: To study the pharmacokinetics of compounds in C57BL/6 mice.
Experimental materials: C57BL/6 mice (male, 8 weeks old, body weight 25 g-30 g)
Experimental operation: The pharmacokinetic characteristics of rodents after intravenous (IV) and oral (PO) administration of compounds were tested in standard protocols. In the experiment, the candidate compounds were formulated into 1 mg/mL clear solutions, and administered to mice via a single intravenous injection and oral administration. The vehicle of intravenous and oral administration was 5% DMSO/5% polyethylene glycol 15-hydroxystearate (Solutol)/90% aqueous solution. Four male C57BL/6 mice were used in the experiment, wherein two mice were administered intravenously at a dose of 1 mg/kg, and the plasma samples were collected 0.0833, 0.25, 0.5, 1, 2, 4, 6, 8 and 24 h after administration, the other two mice were given oral gavage at a dose of 10 mg/kg, and the plasma samples were collected 0.25, 0.5, 1, 2, 4, 6, 8, and 24 h after administration. Whole blood samples within 24 hours were collected, centrifuged at 3000 g for 15 minutes, and the supernatant was separated to obtain plasma samples. Acetonitrile solution containing internal standard was added thereto to precipitate proteins, the mixture was thoroughly mixed and centrifuged to obtain the supernatant for injection. The plasma concentration was quantified by LC-MS/MS analysis method, and the pharmacokinetic parameters were calculated, such as peak concentration (Cmax), clearance (CL), half-life (T1/2), […] (Vdss), area under the drug-time curve (AUC0-last), bioavailability (F) and so on.

SMILES strings stand for the structures.

Consider `Cc1cc(C(=O)Nc2cccc(-c3cccc(NC(=O)c4ccc(CNCCO)cn4)c3C)c2C)nc2c1CCN(CCO)C2` [Compound 1], for which the figures for the IC50 (at PD1/PD-L1 [1]; on PD1/PD-L1 [2]; in data set [3]) were 2.08 nM, 34.9 nM and 62.5 nM, respectively. In addition, the “Maximum effect (induction fold)” value on PD1/PD-L1 [2] amounted to 3.71 induction fold.
In the case of `Cc1cc(C(=O)Nc2cccc(-c3cccc(NC(=O)c4ccc(CNCCO)cn4)c3C)c2C)nc2c1CN(CCO)CC2` [Compound 2], on PD1/PD-L1 [1], the IC50 is 2.1 nM.
For the molecule `Cc1cc(C(=O)Nc2cccc(-c3cccc(NC(=O)c4ccc(CNCCO)cn4)c3Cl)c2C)nc2c1CCN(CCO)C2` [Compound 6], the IC50 stood at 4.65 nM at PD1/PD-L1 [1], 14.3 nM on PD1/PD-L1 [2] and 93.2 nM in data set [3]. For the same molecule, the “Maximum effect (induction fold)” value on PD1/PD-L1 [2] came to 3.54 induction fold.
In turn, `Cc1cc(C(=O)Nc2cccc(-c3cccc(NC(=O)c4ccc(CNCCO)cn4)c3C)c2C#N)nc2c1CCN(CCO)C2` [Compound 7] came in with an IC50 at PD1/PD-L1 [1] of 3.22 nM. Besides, at PD1/PD-L1 [2], the “Maximum effect (induction fold)” value was found to be 3.38 induction fold and the IC50 is 38.4 nM.
As for `Cc1cc(C(=O)Nc2cccc(-c3cccc(NC(=O)c4ccc(CNCCO)cn4)c3C)c2Cl)nc2c1CCN(C(CO)CO)C2` [Compound 11], the IC50 at PD1/PD-L1 [1] is 4.54 nM; on PD1/PD-L1 [2], 42.5 nM; in data set [3], 25.1 nM. For the same molecule, the “Maximum effect (induction fold)” value on PD1/PD-L1 [2] was 3.81 induction fold.
`Cc1cc(C(=O)Nc2cccc(-c3cccc(NC(=O)c4ccc(CNCCO)cn4)c3C)c2Cl)nc2c1CCN(C1CCC(C)(C(=O)O)CC1)C2` (stereo not drawn) [Compound 20]: the IC50 on PD1/PD-L1 [1] is 3.58 nM; on PD1/PD-L1 [2], 16.9 nM. The “Maximum effect (induction fold)” value at PD1/PD-L1 [2] amounted to 3.43 induction fold.
Consider `COc1cc(C(=O)Nc2cccc(-c3cccc(-c4cnc(CN5CC(C)(O)C5)c(OC)n4)c3Cl)c2Cl)nc2c1CCN(CCO)C2` [Compound 42], for which, on PD1/PD-L1 [2], the “Maximum effect (induction fold)” value was 4.39 induction fold and the IC50 is 23.4 nM. In data set [4], the bioavailability is 61.6%, the Cmax is 260 nM, the clearance stood at 36.6 mL/min/kg and the half-life is 16.4 h. For the same molecule, in data set [4], the Vd is 40.8 L/kg and the AUC(0-t) turned out to be 3.1 µM·h. The molecule also displayed an IC50 in data set [3] of 9.48 nM.
Turning to `COc1nc(-c2cccc(-c3cccc(NC(=O)c4cc(C)c5c(n4)CN(CCO)C5)c3Cl)c2Cl)cnc1CN1CC(O)C1` [Compound 50], on PD1/PD-L1 [2], the “Maximum effect (induction fold)” value is listed as 4.55 induction fold and the IC50 amounted to 45.8 nM. In data set [4], the bioavailability was 63.5%, the Cmax stood at 221 nM, the clearance worked out at 85.5 mL/min/kg and the half-life is 3.72 h. In addition, in data set [4], the Vd was 18.3 L/kg and the AUC(0-t) turned out to be 1.66 µM·h.

Broadly, the bioavailability is the share of a dose that reaches the circulation, judged against a reference dose that is usually intravenous. As usually defined, the clearance is the volume of plasma or blood freed of the substance per unit of time.

The values above are taken from US20220402917A1, “COMPOUND AS SMALL MOLECULE INHIBITOR PD-1/PD-L1 AND APPLICATION THEREOF” (MEDSHINE DISCOVERY INC., priority 2019, published 2022).
